Key:
Assay type in all cases: in vivo
[1] = tested on: barley net blotch fungus (Pyrenophora teres); experiment: Test Example 1: barley net blotch preventive foliar spray test; conditions: 500 ppm sprayed on barley (MIKAMO GOLDEN) stems and leaves; spores inoculated after 2 days; 3 days high humidity then 7 days in greenhouse
Text: (§1) Each of plastic pots was filled with soil and barley (cultivar: MIKAMO GOLDEN) was sowed and grown in a greenhouse for 7 days. Then, each water dilution prepared by adjusting so as to contain a predetermined concentration (500 ppm) of the present compound 1 was sprayed over stems and leaves of the barley so that it sufficiently adhered to the surface of the leaves of the barley. After spraying, the plant was air-dried. After 2 days, an aqueous suspension containing spores of barley net blotch fungus (Pyrenophora teres) was sprayed to inoculate the spores. After completion of the inoculation, the plant was placed for 3 days in a greenhouse at 23° C. in the daytime and 20° C. at night under high humidity condition and cultivated in a greenhouse for 7 days, and then the area of lesion was investigated. As a result, the area of lesion on the plant treated with of the present compound was 30% or less of that on an untreated plant.

[2] = tested on: kidney bean stem rot fungus (Sclerotinia sclerotiorum); experiment: Test Example 2: kidney bean stem rot foliar spray test; conditions: 500 ppm sprayed on kidney bean (NAGAUZURA SAITOU); hyphae-containing PDA medium placed on leaves after air-drying; assessed four days after inoculation
Text: Each of plastic pots was filled with soil and kidney bean (cultivar: NAGAUZURA SAITOU) was sowed and grown in a greenhouse for 8 days. Then, each water dilution prepared by adjusting so as to contain a predetermined concentration (500 ppm) of the present compound 1 was sprayed over stems and leaves of the kidney bean so that it sufficiently adhered to the surface of the leaves of the kidney bean. After spraying, the plant was air-dried and a PDA medium containing hyphae of the kidney bean stem rot fungus (Sclerotinia sclerotiorum) was placed on the leaves of the kidney bean. After the inoculation, all kidney beans were placed under high humidity condition only at night. Four days after the inoculation, the area of lesion was investigated. As a result, the area of lesion on the plant treated with the present compound was 30% or less of that on an untreated plant.

[3] = tested on: wheat leaf blotch fungus (Septoria tritici); experiment: Test Example 3: wheat leaf blotch preventive foliar spray test; conditions: 500 ppm sprayed on wheat (APOGEE); spores inoculated after 4 days; 3 days at 18° C. high humidity then 14 to 18 days under illumination
Text: Each of plastic pots was filled with soil and wheat (cultivar: APOGEE) was sowed and grown in a greenhouse for 10 days. Then, each water dilution prepared by adjusting so as to contain a predetermined concentration (500 ppm) of the present compound 1 was sprayed over stems and leaves of the wheat so that it sufficiently adhered to the surface of the leaves of the wheat. After spraying, the plant was air-dried. After 4 days, an aqueous suspension containing spores of wheat leaf blotch fungus (Septoria tritici) was sprayed over the wheat to inoculate the spores. After completion of the inoculation, the plant was placed at 18° C. under high humidity condition for 3 days and then placed under illumination for 14 to 18 days, and then the area of lesion was investigated. As a result, the area of lesion on the plant treated with the present compound was 30% or less of that on an untreated plant.

[4] = tested on: cucumber powdery mildew fungus (Sphaerotheca fuliginea, a QoI-resistant strain); experiment: Test Example 4: cucumber powdery mildew (QoI-resistant strain) foliar spray test; conditions: 500 ppm sprayed on cucumber (SAGAMI HANJIRO), cytochrome b position 143 glycine to alanine, assessed after 8 days
Text: Each of plastic pots was filled with soil and cucumber (cultivar: SAGAMI HANJIRO) was sowed and grown in a greenhouse for 12 days. Then, each water dilution prepared by adjusting so as to contain a predetermined concentration (500 ppm) of the present compound 1 was sprayed over stems and leaves of the cucumber so that it sufficiently adhered to the surface of the leaves of the cucumber. After spraying, the plant was air-dried and then inoculated by sprinkling with spores of cucumber powdery mildew fungus (Sphaerotheca fuliginea, a QoI-resistant strain in which, among the genes encoding cytochrome b, the amino acid residue at position 143 of cytochrome b is mutated from glycine to alanine). After the inoculation, the plant was cultivated in a greenhouse at 24° C. in the daytime and 20° C. at night for 8 days, and then the area of lesion was investigated. As a result, the area of lesion on the plant treated with the present compound was 30% or less of that on an untreated plant.

[5] = tested on: wheat rust fungus (Puccinia recondita); experiment: Test Example 5: wheat rust preventive foliar spray test; conditions: 200 ppm sprayed on wheat (SHIROGANE); spores inoculated after 5 days; one day dark high humidity then 8 days under illumination
Experimental: Each of plastic pots was filled with soil and wheat (cultivar: SHIROGANE) was sowed and grown in a greenhouse for 9 days. Then, each water dilution prepared by adjusting so as to contain a predetermined concentration (200 ppm) of the present compound 1 was sprayed over stems and leaves of the wheat so that it sufficiently adhered to the surface of the leaves of the wheat. After spraying, the plant was air-dried and cultivated at 20° C. for 5 days under illumination, and then inoculated by sprinkling with spores of wheat rust fungus (Puccinia recondita). After the inoculation, the plant was placed at 23° C. for one day under dark and high humidity condition, and cultivated under illumination at 20° C. for 8 days, and then the area of lesion was investigated. As a result, the area of lesion on the plant treated with the present compound was 30% or less of that on an untreated plant.

[6] = tested on: barley scald fungus (Rhynchosporium secalis); experiment: Test Example 6: barley scald preventive foliar spray test; conditions: 200 ppm sprayed on barley (MIKAMO GOLDEN); spores inoculated after 2 days; 3 days high humidity then 7 days in greenhouse
Text: as §1, with “(200” for “(500”, “scald” for “net blotch”, “(Rhynchosporium secalis)” for “(Pyrenophora teres)”

[7] = tested on: cucumber anthracnose fungus (Colletotrichum lagenarium); experiment: Test Example 7: cucumber anthracnose preventive foliar spray test; conditions: 50 ppm sprayed on cucumber (SAGAMI HANJIRO); spores inoculated after 1 day; one day high humidity then 6 days in greenhouse
Text: (§2) Each of plastic pots was filled with soil and cucumber (cultivar: SAGAMI HANJIRO) was sowed and grown in a greenhouse for 19 days. Then, each water dilution prepared by adjusting so as to contain a predetermined concentration (50 ppm) of the present compound 1 was sprayed over stems and leaves of the cucumber so that it sufficiently adhered to the surface of the leaves of the cucumber. After spraying, the plant was air-dried and then, after 1 day, an aqueous suspension containing spores of cucumber anthracnose fungus (Colletotrichum lagenarium) was sprayed to inoculate the spores. After the inoculation, the plant was placed at 23° C. for one day under high humidity condition, and then cultivated in a greenhouse at 24° C. in the daytime and 20° C. at night for 6 days, and then the area of lesion was investigated. As a result, the area of lesion on the plant treated with the present compound was 30% or less of that on an untreated plant.

[8] = tested on: cucumber downy mildew fungus (Pseudoperonospora cubensis); experiment: Test Example 8: cucumber downy mildew preventive foliar spray test; conditions: 200 ppm sprayed on cucumber (SAGAMI HANJIRO); zoospores inoculated after 1 day; one day high humidity then 6 days in greenhouse
Text: as §2, with “(200” for “(50”, “zoospores” for “spores”, “downy mildew” for “anthracnose”, “(Pseudoperonospora cubensis)” for “(Colletotrichum lagenarium)”, “zoospores.” for “spores.”, “placed stand” for “placed”

Measured: area of lesion on the treated plant relative to that on an untreated plant

Cc1cccc(-n2nnn(C)c2=O)c1CSc1ccn(-c2ccc(Cl)cc2)n1 [present compound 1, 1-(2-{[1-(4-chlorophenyl)-1H-pyrazol-3-yl]thiomethyl}-3-methy1phenyl)-4-methyl-1,4-dihydrotetrazol-5-one]
≤ 30%: all assays above

Reference: patent US10070646B2, “Tetrazolinone compound and application thereof” (SUMITOMO CHEMICAL COMPANY, LIMITED, priority 2014, dated 2018)
